Reference: patent publication US9708295B2, “Substituted 2-aminopyridine protein kinase inhibitor” (CHIA TAI TIANQING PHARMACEUTICAL GROUP CO., LTD, priority 2013, dated 2017)

What was measured:
[1] = target: L1196M mutated ALK kinase (Homo sapiens (Human), UniProt Q9UM73, L1196M); test: biochemical
[2] = target: G1269S mutated ALK kinase (Homo sapiens (Human), UniProt Q9UM73, G1269S); test: biochemical
[3] = In vivo pharmacokinetics in SD rats; conditions: Sprague-Dawley, rat, po, 5 mg/kg
CYP-3A4 = CYP-3A4 (Homo sapiens (Human), UniProt P08684); test: Inhibition of CYP-3A4 (midazolam substrate); assay type: in vitro ADME; conditions: for IC50: substrate midazolam, read-out: Inhibition to CYP-3A4, 3A4_Midazolam
Chain of CYP-3A4 (P08684 whole entry): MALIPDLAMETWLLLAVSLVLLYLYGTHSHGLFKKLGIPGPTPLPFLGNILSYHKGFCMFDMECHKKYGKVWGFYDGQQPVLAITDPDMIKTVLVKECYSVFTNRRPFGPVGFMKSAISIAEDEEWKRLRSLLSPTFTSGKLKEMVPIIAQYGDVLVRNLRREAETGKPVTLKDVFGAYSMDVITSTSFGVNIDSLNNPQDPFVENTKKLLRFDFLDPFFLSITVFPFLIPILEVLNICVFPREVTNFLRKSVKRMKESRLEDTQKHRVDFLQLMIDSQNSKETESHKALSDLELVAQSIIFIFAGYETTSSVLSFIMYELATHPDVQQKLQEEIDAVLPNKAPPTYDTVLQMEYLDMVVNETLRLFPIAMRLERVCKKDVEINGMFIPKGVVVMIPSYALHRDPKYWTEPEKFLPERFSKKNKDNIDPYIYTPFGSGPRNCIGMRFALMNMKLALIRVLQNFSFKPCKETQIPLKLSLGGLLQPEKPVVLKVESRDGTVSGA

ALK kinase = ALK kinase (Homo sapiens (Human), UniProt Q9UM73); conditions: read-out: IC50 (nM), ALK inhibition activity; HTRF, ATP at Km
Chain of ALK kinase (Q9UM73 19-1620): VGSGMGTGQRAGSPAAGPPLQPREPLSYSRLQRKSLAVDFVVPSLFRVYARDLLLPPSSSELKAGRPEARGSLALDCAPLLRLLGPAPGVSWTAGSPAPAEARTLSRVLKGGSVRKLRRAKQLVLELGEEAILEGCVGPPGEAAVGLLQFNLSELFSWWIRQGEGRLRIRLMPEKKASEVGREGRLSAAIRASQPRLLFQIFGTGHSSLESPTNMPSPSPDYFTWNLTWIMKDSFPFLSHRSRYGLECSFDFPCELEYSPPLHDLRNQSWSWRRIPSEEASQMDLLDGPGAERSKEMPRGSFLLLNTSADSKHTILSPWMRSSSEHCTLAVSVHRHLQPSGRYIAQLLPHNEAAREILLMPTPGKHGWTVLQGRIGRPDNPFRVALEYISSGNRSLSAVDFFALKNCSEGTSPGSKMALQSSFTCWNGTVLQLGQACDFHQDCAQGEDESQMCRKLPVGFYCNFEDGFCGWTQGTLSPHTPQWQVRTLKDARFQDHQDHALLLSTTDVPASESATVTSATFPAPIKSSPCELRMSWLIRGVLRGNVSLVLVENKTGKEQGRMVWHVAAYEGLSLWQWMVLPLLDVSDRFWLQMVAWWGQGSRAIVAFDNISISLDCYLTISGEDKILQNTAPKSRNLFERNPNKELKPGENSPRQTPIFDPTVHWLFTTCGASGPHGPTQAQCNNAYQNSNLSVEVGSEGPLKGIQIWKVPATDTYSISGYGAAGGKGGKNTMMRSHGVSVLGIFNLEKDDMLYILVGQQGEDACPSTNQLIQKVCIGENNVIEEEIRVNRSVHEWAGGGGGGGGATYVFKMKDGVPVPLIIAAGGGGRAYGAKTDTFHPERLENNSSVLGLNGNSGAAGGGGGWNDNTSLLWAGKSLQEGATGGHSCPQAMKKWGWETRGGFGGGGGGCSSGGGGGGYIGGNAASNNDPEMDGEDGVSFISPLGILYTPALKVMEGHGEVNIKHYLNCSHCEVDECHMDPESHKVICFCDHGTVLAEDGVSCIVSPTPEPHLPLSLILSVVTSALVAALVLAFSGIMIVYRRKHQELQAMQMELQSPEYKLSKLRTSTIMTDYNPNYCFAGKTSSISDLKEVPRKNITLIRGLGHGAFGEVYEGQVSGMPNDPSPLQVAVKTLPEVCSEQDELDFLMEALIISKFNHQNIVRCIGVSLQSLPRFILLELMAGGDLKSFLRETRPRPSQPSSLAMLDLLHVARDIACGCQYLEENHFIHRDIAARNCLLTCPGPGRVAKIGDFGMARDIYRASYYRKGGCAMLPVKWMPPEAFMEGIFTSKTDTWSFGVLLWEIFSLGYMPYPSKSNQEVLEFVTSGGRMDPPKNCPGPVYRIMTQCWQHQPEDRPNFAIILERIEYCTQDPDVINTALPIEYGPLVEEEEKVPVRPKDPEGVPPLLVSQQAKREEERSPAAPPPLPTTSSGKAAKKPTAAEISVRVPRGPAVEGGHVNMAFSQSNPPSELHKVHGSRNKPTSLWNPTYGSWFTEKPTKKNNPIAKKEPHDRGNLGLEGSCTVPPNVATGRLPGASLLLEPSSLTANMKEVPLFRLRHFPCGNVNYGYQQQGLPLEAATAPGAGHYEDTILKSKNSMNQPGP

[4] = system: human non-small cell lung carcinoma NCI-H2228; test: Therapeutic effect on human non-small cell lung carcinoma NCI-H2228 xenografts in nude mice; assay type: in vivo; conditions: D0-13 once a day; for Average tumor volume (mm^3) D0: D0 baseline at grouping
in vivo = conditions: Sprague-Dawley, rat, po, 5 mg/kg

Chain of L1196M mutated ALK kinase (Q9UM73 19-1620 L1196M): as the sequence (Q9UM73 19-1620) above, with L1178M counted along it
Chain of G1269S mutated ALK kinase (Q9UM73 19-1620 G1269S): as the sequence (Q9UM73 19-1620) above, with G1251S counted along it

Row | SMILES | IC50 [1] | IC50 [2] | AUC(0-inf) [3] | Cmax [3] | Tmax [3] | half-life [3] | inhibition against CYP-3A4 (in words) (CYP-3A4) | IC50 (CYP-3A4) | IC50 (ALK kinase) | Average tumor volume (mm^3) D0 ([4]; 12.5 mg/kg PO) | % Inhibition rate D21 ([4]; 12.5 mg/kg PO, D21) | % T/C D21 ([4]; 12.5 mg/kg PO, D21) | Average tumor volume (mm^3) D21 ([4]; 12.5 mg/kg PO, D21) | Average tumor volume (mm^3) D0 ([4]; 25 mg/kg PO) | Average tumor volume (mm^3) D21 ([4]; 25 mg/kg PO, D21) | % T/C D21 ([4]; 25 mg/kg PO, D21, tumor regression formula) | AUC(0-inf) (in vivo) | Cmax (in vivo) | Tmax (in vivo) | half-life (in vivo)
1 | COc1cc(N2CCNC[C@@H]2C)ncc1-c1cnc(N)c(O[C@H](C)c2c(Cl)ccc(F)c2Cl)c1 [Example 27, 5-((R)-1-(2,6-dichloro-3-fluorophenyl)ethoxy)-4′-methoxy-6′-((S)-2-methylpiperazin-1-yl)-[3,3′-bipyridin]-6-amine] | 35.1 ± 5.3 nM | 61.3 ± 7.9 nM | 601 ng·h/mL | 69.7 ng/mL | 3.67 h | 5.45 h | no significant inhibition | > 10000 nM | 1.96 nM | 134.3 mm^3 | 78% | 22% | 394.8 mm^3 | 131.0 mm^3 | 21.7 mm^3 | −83% | – | – | – | –
2 | COc1cc(-c2cnc(N)c(O[C@H](C)c3c(Cl)ccc(F)c3Cl)c2)cnc1C1=CCNCC1 [Example 30, (R)-5-(1-(2,6-dichloro-3-fluorophenyl)ethoxy)-5′-methoxy-1″,2″,3″,6″-tetrahydro-[3,3′:6′,4″-terpyridin]-6-amine] | – | – | – | – | – | – | no significant inhibition | > 10000 nM | – | – | – | – | – | – | – | – | 1270 ng·h/mL | 113 ng/mL | 3 h | 4.43 h
3 | CCOc1cc(N2CCNC[C@@H]2C)ncc1-c1cnc(N)c(O[C@H](C)c2c(Cl)ccc(F)c2Cl)c1 [Example 53, 5-((R)-1-(2,6-dichloro-3-fluorophenyl)ethoxy)-4′-ethoxy-6′-((S)-2-methylpiperazin-1-yl)-[3,3′-bipyridin]-6-amine] | – | – | 830 ng·h/mL | 62.6 ng/mL | 3.33 h | 4.75 h | – | – | – | – | – | – | – | – | – | – | – | – | – | –
